Assay results as given in patent US12258337B2, “Bicyclic CX3CR1 receptor agonists” (Board of Regents, The University of Texas System, priority 2019, dated 2025).

Key:
Assay in all cases: Ga16 assay, CX3CR1 agonism, Ca2+ sensitive photo-protein readout (FLIPRTETRA)
Assay type in all cases: cell-based
hCX3CR1 = biological target: T1, hCX3CR1 (Homo sapiens, UniProt P49238); design: expressed in transfected cells; stably expresses a Ca2+ sensitive photo-protein; conditions: human CX3CR1 cell line
T1 sequence (P49238 1-355): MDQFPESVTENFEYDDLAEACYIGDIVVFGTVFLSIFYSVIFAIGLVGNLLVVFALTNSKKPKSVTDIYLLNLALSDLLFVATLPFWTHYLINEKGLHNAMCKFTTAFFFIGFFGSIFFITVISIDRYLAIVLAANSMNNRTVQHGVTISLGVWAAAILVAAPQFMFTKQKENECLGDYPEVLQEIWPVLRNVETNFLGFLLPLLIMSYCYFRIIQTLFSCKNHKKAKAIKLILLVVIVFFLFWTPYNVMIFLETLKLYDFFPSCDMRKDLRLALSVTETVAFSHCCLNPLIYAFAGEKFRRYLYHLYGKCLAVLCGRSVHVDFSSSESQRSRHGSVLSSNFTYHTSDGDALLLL
Method: (§1) Compounds (as well as stereoisomer(s) thereof and/or salt(s) thereof) were tested for CX3CR1 agonism in a cell based assay with fluorescent readout in Agonist Mode in dose response in quadruplicate with intra-plate modality).
(§2) Buffers and reagents. PBS (D-PBS without calcium and magnesium; EuroClone); Trypsin (Trypsin 0.05%, EDTA 0.02% in PBS; EuroClone); DMSO (Sigma); Standard tyrode buffer: in-house solution (130 mM NaCl, 5 mM KCl, 2 mM CaCl2), 1 mM MgCl2, 5 mM NaHCO3, 20 mM HEPES in water at pH 7.4; sterile filtered); Coelenterazine, native (Biosynth); stock 10 mM; Agonist: Recombinant Human Fractalkine (CX3CL1) (PeproTech); stock: 10 μM in standard tyrode buffer+BSA 0.1%; stored at −20° C.
(§3) Cell line. Human (hCX3CR1), mouse (mCX3CR1), and rat (rCX3CR1) were used for the assay.
(§4) Assay protocol. Experiments ere performed in 384 MTP format. Cells were seeded at 7,500 cells/well in 25 μl/well complete growth medium without selection antibiotics in 384-well plates. Twenty-four hours later, cells ere assayed for the response to various compounds using the Ca^2+ sensitive photo-protein stably expressed in the cells as readout.
(§5) The experiment was performed in a 384-well format according to the following procedure: • 24h after seeding, pre-incubate the cells at room temperature for 1 hour. • Then remove the culture medium. • Load cells with 20 μL/well of standard tyrode buffer+10 μM ceolenterazine. • Incubate cell plates for 3 hours at RT. • Inject 10 μL/w of 3× concentrated test compounds and controls in assay buffer at the FLIPRTETRA and monitor the kinetic response over a period of 90 seconds.
(§6) Data from FLIPRTETRA measurements were analyzed with the Genedata Screener© software. The following examples are meant to illustrate, but in no way to limit, the claimed invention.

rCX3CR1 = biological target: T2, rCX3CR1 (Rattus norvegicus, UniProt P35411); conditions: rat CX3CR1 cell line
T2 construct: expressed in transfected cells; stably expresses a Ca2+ sensitive photo-protein
T2 sequence (P35411 1-354): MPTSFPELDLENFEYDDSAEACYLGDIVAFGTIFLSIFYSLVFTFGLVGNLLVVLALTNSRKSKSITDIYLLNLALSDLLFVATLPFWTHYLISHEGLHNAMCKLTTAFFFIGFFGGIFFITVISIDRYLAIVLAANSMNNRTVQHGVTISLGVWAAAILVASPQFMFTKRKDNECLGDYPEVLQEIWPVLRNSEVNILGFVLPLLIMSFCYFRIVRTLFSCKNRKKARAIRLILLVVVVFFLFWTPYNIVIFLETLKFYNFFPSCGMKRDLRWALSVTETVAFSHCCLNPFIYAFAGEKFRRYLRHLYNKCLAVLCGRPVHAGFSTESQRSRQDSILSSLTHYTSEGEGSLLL
Method: as §1, §2, §3, §4, §5, §6

mCX3CR1 = biological target: T3, mCX3CR1 (Mus musculus, UniProt Q9Z0D9); conditions: mouse CX3CR1 cell line
T3 construct: expressed in transfected cells; stably expresses a Ca2+ sensitive photo-protein
T3 sequence (Q9Z0D9 1-354): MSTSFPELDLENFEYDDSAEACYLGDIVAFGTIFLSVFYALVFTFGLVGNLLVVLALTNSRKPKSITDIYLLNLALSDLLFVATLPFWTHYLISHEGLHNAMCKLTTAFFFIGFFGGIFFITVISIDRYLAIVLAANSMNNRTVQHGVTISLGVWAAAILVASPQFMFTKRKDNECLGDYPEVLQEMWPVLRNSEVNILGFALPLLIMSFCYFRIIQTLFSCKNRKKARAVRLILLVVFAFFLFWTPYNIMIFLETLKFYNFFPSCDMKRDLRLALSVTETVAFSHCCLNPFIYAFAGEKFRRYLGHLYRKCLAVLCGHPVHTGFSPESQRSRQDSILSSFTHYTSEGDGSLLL
Method: as §1, §2, §3, §4, §5, §6

EC50 (hCX3CR1)	EC50 (rCX3CR1)	EC50 (mCX3CR1)	Structure (SMILES)
9.6 µM	8.4 µM	10.8 µM	O=C(NCC1(CN2CCCC2)CCCOC1)c1cc2c(s1)CCCCCC2 (stereo not drawn) [Example 44, N-[[3-(pyrrolidin-1-ylmethyl)oxan-3-yl]methyl]-4,5,6,7,8,9-hexahydrocycloocta[b]thiophene-2-carboxamide]
10 µM	13.1 µM	15.8 µM	CN(C)CC1(CNC(=O)c2cc3c(s2)CCCCCC3)CCOC1 (stereo not drawn) [Example 38, N-[[3-[(dimethylamino)methyl]oxolan-3-yl]methyl]-4,5,6,7,8,9-hexahydrocycloocta[b]thiophene-2-carboxamide]
22.6 µM	81.4 µM	> 100 µM	COCCOC1CCN(CC(C)(C)CNC(=O)c2cc3c(s2)CCCCCC3)CC1 [Example 42, N-[3-[4-(2-methoxyethoxy)piperidin-1-yl]-2,2-dimethylpropyl]-4,5,6,7,8,9-hexahydrocycloocta[b]thiophene-2-carboxamide]
12.2 µM	11.5 µM	15 µM	CN(C)CC1(CNC(=O)c2cc3c(s2)CCCCCC3)CCCOC1 (stereo not drawn) [Example 37, N-[[3-[(dimethylamino)methyl]oxan-3-yl]methyl]-4,5,6,7,8,9-hexahydrocycloocta[b]thiophene-2-carboxamide]
12.8 µM	12.1 µM	18 µM	O=C(NCC1(CN2CCC2)CCOCC1)c1cc2c(s1)CCCCCC2 [Example 35, N-[[4-(azetidin-1-ylmethyl)oxan-4-yl]methyl]-4,5,6,7,8,9-hexahydrocycloocta[b]thiophene-2-carboxamide]
9.1 µM	> 100 µM	> 100 µM	O=C(NCC1(CN2CCC2)CCC1)c1cc2c(s1)CCCCCC2 [Example 36, N-[[1-(azetidin-1-ylmethyl)cyclobutyl]methyl]-4,5,6,7,8,9-hexahydrocycloocta[b]thiophene-2-carboxamide]
20.8 µM	74.9 µM	83.8 µM	O=C(NCC1(CN2CCC(O)CC2)CCOCC1)c1cc2c(s1)CCCCCC2 [Example 40, N-[[4-[(4-hydroxypiperidin-1-yl)methyl]oxan-4-yl]methyl]-4,5,6,7,8,9-hexahydrocycloocta[b]thiophene-2-carboxamide]
11.1 µM	10.9 µM	9.6 µM	O=C(NCC1(CN2CCCC2)CCOC1)c1cc2c(s1)CCCCCC2 (stereo not drawn) [Example 39, N-[[3-(pyrrolidin-1-ylmethyl)oxolan-3-yl]methyl]-4,5,6,7,8,9-hexahydrocycloocta[b]thiophene-2-carboxamide]
